The values that follow come from PMC6150336, “Hepatotoxicity Induced by Sophora flavescens and Hepatic Accumulation of Kurarinone, a Major Hepatotoxic Constituent of Sophora flavescens in Rats” (Molecules : A Journal of Synthetic Chemistry and Natural …, 2017).

For data set [1] the following is noted: method and reference not given; cited from earlier work.
In another data set the test system is HL-7702 cells. Put plainly: Effect of kurarinone on triglyceride levels in HL-7702 cells. Type of data set: cell-based, human. Particulars: HL 7702 cells exposed for 24 h. How it is done: HL-7702 cells were cultured in RPMI-1640 medium (Gibco, Grand Island, NY, USA) containing 10% fetal bovine serum (FBS) (Gibco, USA) in a humidified atmosphere of 5% CO2 at 37 °C. The cells were seeded in 24-well plates, cultured for 24 h, and incubated with kurarinone (1, 8, 16, 24, 32, 44, and 60 μM) dissolved in RPMI-1640 medium without FBS for 24 h. Triglyceride levels were determined using a triglyceride assay kit (Nanjing Jiancheng Bioengineering Institute) according to the manufacturer’s instructions.

A short description of data set [2]: ESF tissue distribution study in rats. Type of data set: in vivo, rat. Particulars: for AUC(0-t): male, rat. How it is done:
Male rats were divided into five groups corresponding to five experimental time points (n = 3 in each group). Rats under urethane anesthesia were sacrificed by bleeding from the abdominal aorta and hepatic portal vein at 15 min, 30 min, 1 h, 2 h, and 4 h time points (3 rats/time point) after a p.o. dose of ESF (2.5 g/kg). The liver, kidneys, heart, skeletal muscles, small intestine, and bile were harvested and homogenized in threefold volume of ice-cold saline. Kurarinone levels in vivo in the plasma and liver were examined at the time points when blood biochemistry parameters were measured. Kurarinone and kurarinone glucuronides levels were detected by LC-MS/MS [24, 25].

The mark [3] stands for this setting: AUC0–4h after oral administration of ESF (2.5 g/kg) in rats.

Read-outs that look alike come from different tables or passages of the source.

For orientation: EC50 means the concentration that produces a half-maximal response. In the case of `C=C(C)[C@H](CC=C(C)C)Cc1c(O)cc(OC)c2c1O[C@H](c1ccc(O)cc1O)CC2=O` [Kurarinone, kurarinone], the log p in data set [1] is given as 5.6. Besides, the Triglyceride accumulation result in the data set on HL-7702 cells (1-60 μM) was “accumulated dose-dependently”. Also, the concentration giving a half-maximal response (EC50) with HL-7702 cells (Homo sapiens, L02, read-out: EC50, increase of triglyceride) turned out to be 31.2 ± 2.47 µM. Further, the “Exposure of liver compared with plasma” value in data set [2] (ESF (2.5 g/kg) orally in rats) is “much higher”. In data set [2] (ESF-treated rats), the “Form of kurarinone in visceral organs” value was “predominant”. Further, the AUC(0-t) amounted to 0.8 µM·h in data set [2] (bile, AUC0–4h after oral administration of ESF (2.5 g/kg) in rats, read-out: AUC0–t Biliary Secretion); 4.7 µM·h in data set [2] (heart, AUC0–4h after oral administration of ESF (2.5 g/kg) in rats, read-out: AUC0–t Heart); 4.4 µM·h in data set [2] (hepatic portal vein plasma, AUC0–4h after oral administration of ESF (2.5 g/kg) in rats, read-out: AUC0–t Protal Plasma); 5.4 µM·h in data set [2] (kidney, AUC0–4h after oral administration of ESF (2.5 g/kg) in rats, read-out: AUC0–t Kidney); 45.5 µM·h in data set [2] (liver, AUC0–4h after oral administration of ESF (2.5 g/kg) in rats, read-out: AUC0–t Liver); 6.9 µM·h in data set [2] (skeletal muscle, AUC0–4h after oral administration of ESF (2.5 g/kg) in rats, read-out: AUC0–t Skeletal Muscle). The AUC(0-t) in data set [2] (small intestine, AUC0–4h after oral administration of ESF (2.5 g/kg) in rats, read-out: AUC0–t Intestine) is 21.4 µM·h; in data set [2] (systemic (body) plasma, AUC0–4h after oral administration of ESF (2.5 g/kg) in rats, read-out: AUC0–t Body Plasma) it was 2.4 µM·h.

On to kurarinone glucuronide, for which, in data set [2] (setting [3]), the “AUC0–t Biliary Secretion” value stood at 93.3 µM·h, the “AUC0–t Body Plasma” value turned out to be 15.3 µM·h, the “AUC0–t Heart” value was found to be 0.1 µM·h and the “AUC0–t Intestine” value came to 2.2 µM·h. Besides, in data set [2] (setting [3]), the “AUC0–t Kidney” value came out at 0.7 µM·h, the “AUC0–t Liver” value worked out at 1.4 µM·h, the “AUC0–t Protal Plasma” value stood at 25.0 µM·h and the “AUC0–t Skeletal Muscle” value was found to be 0.4 µM·h. Further, in data set [2] (ESF-treated rats), the “Form of kurarinone in plasma and bile” value is “dominant form”.
